The source of these data is ChEMBL document CHEMBL1150095, “Antitumor activity and stereochemistry of acetylenic alcohols from the sponge Cribrochalina vasculum” (1995).

For one assay, the system named is NCI-H522. The assay is described as follows: Antitumor activity against human NCI-H522 cells. It counts as functional.
The next assay deals with IGROV-1. The assay is described as follows: Antitumor activity against human IGROV1 cells. It counts as functional.

The source made the active and inactive calls. No cut-off for these calls is given here.

Turning to `C#C[C@@H](O)/C=C/CCCCCCCCCCCCCC(C)C`, the outcome with NCI-H522 and with IGROV-1 was Active.
